Among the data in PubChem BioAssay (NCI) are TGI values, retold here.

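Following 48 hours of exposure in 96-well plates, responses at five concentrations were used to interpolate endpoints linearly. TGI: total growth inhibition.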 Where a SMILES comes first, the peptide text is derived from it. [ ]: non-standard residue; d: D form. The star is where a group is joined. ξ: configuration not given here. ξF = NC(Cc1ccccc1)C(=O)O; Cbz = O=C(OCc1ccccc1)*; Aib = CC(C)(N)C(=O)O; NHNH2 = NN* Some results are limits rather than exact numbers.

Common to all, as to assay: inhibition of tumour cell growth, NCI panel, 48 h
The test system of experiment [1] is 786-0 renal.
In experiment [2] the test system is A498 renal.
For experiment [3], the system named is A549 NSCLC.
Experiment [4] has as its system ACHN renal.
Experiment [5] deals with BT-549 breast.
The test system of experiment [6] is HT29 colon.
The subject of experiment [7] is MDA-N.
Experiment [8] deals with MOLT-4 leukemia.
Experiment [9] has as its system NCI-H226 lung.
Experiment [10] relates to NCI-H522 lung.
In experiment [11] the test system is SK-MEL-28 melanoma.
Experiment [12] has as its system SR leukemia.
For experiment [13], the system named is SW-620 colon.
The test system of experiment [14] is U251 CNS.
Experiment [15] relates to M14 melanoma.
Experiment [16] deals with SNB-75 CNS.

As for `NC(Cc1ccc(OCc2ccccc2)cn1)C(=O)O` (configuration not stated), the TGI in experiment [1], in experiment [2], in experiment [3], in [4], in experiment [5] and in [6] was more than 100 µM each time. The TGI in [7], in [8], in [9], in experiment [10], in [11] and in [12] was more than 100 µM in each case. Further, the TGI in experiment [13] and in [14] was more than 100 µM in each case.
Consider `CCOC(=O)C(/C(=N/S(=O)(=O)c1cc(C)c(Cl)cc1[S-])[n+]1ccc(N(C)C)cc1)=C(/O)c1ccc([N+](=O)[O-])cc1`, for which the TGI in experiment [1] was more than 100 µM; in [2] it was 60.4 µM; in experiment [3] it was more than 100 µM; in experiment [4] it was 71.6 µM; in experiment [5], 92.7 µM; in experiment [6] it was 55.4 µM. In addition, the TGI in [15] is 96.6 µM; in experiment [7], more than 100 µM; in experiment [8], more than 100 µM; in experiment [9] it was more than 100 µM; in experiment [10], 34.6 µM; in [11] it was 83.5 µM. Also, the TGI in [12] and in [14] was more than 100 µM each time.
Regarding `N#Cc1nc(CCN2C(=O)c3ccccc3C2=O)oc1N`, the TGI in experiment [1], in [3], in experiment [4], in experiment [5], in experiment [6] and in experiment [15] was more than 100 µM throughout. The TGI in [7], in experiment [8], in [9], in experiment [10], in experiment [11] and in experiment [12] was more than 100 µM throughout. In addition, the TGI in [13] and in experiment [14] was more than 100 µM throughout.
Consider `Cc1ccn2c(=O)cc(CN3CCOCC3)nc2c1`, for which the TGI in experiment [1], in experiment [3], in [4], in [5], in [6] and in experiment [15] was more than 100 µM each time. For the same molecule, the TGI in experiment [7], in experiment [8], in experiment [9], in experiment [10], in [11] and in [16] was more than 100 µM each time. For the same molecule, the TGI in experiment [12], in experiment [13] and in [14] was more than 100 µM each time.
Take `Nc1ccc2c(O)cc(=O)[nH]c2n1`: the TGI in experiment [1], in experiment [3], in experiment [4], in experiment [5], in [6] and in experiment [15] was more than 100 µM in each case. Further, the TGI in [7], in experiment [8], in experiment [9], in [10], in [11] and in experiment [16] was more than 100 µM throughout. In addition, the TGI in experiment [12], in [13] and in [14] was more than 100 µM each time.
Take `CC[C@H](C)[C@H]1NC(=O)[C@@H](NC(=O)[C@@H](CC(C)C)N(C)C(=O)C2CCCN2C(=O)[C@H](C)O)[C@@H](C)OC(=O)[C@H](Cc2ccc(OC)cc2)N(C)C(=O)[C@@H]2CCCN2C(=O)[C@H](CCCCNC(=O)OCc2ccccc2)NC(=O)[C@H](C)C(=O)[C@H](C(C)C)OC(=O)C[C@@H]1O` (some centres not stated): the TGI in experiment [1] is more than 25 µM; in experiment [2], more than 25 µM; in experiment [3], more than 25 µM; in experiment [4] it was more than 25 µM; in experiment [5], more than 25 µM; in [6] it was 16.4 µM. Also, the TGI in experiment [15], in experiment [7], in experiment [8], in experiment [9], in experiment [10] and in [11] was more than 25 µM throughout. Besides, the TGI in experiment [12] is more than 25 µM; in experiment [13], more than 25 µM; in experiment [14], 17.6 µM.
Turning to `COc1cc(OC)c2c(c1)OC(c1ccccc1)CC2=O` (configuration not stated), the TGI in experiment [1], in experiment [3], in experiment [4], in experiment [5], in experiment [6] and in experiment [15] was more than 10 µM throughout. Besides, the TGI in [7], in experiment [8], in experiment [9], in experiment [10], in [11] and in experiment [16] was more than 10 µM in each case. Besides, the TGI in experiment [12], in experiment [13] and in experiment [14] was more than 10 µM each time.
Take `O=c1cc(N=Nc2ccc(Br)cc2)[nH]c(=S)[nH]1`: the TGI is 17.1 µM in experiment [1]; more than 100 µM in experiment [3]; 40.8 µM in [4]; more than 100 µM in [5]; 34.2 µM in experiment [6]; 29.1 µM in experiment [15]. Further, the TGI in [7] is more than 100 µM; in experiment [8], 63.3 µM; in experiment [9] it was more than 100 µM; in [10] it was 38 µM; in experiment [11] it was 53.2 µM; in [16], more than 100 µM. Besides, the figures for the TGI in experiment [12], in experiment [13] and in experiment [14] were 74.1 µM, 64.5 µM and more than 100 µM, respectively.
`Cc1c(N2C(=O)/C(=C/c3ccc(Cl)cc3)N=C2c2ccccc2)c(=O)n(-c2ccccc2)n1C`: the TGI in [1] was more than 100 µM; in experiment [3], 99.4 µM; in experiment [4], 60.5 µM; in [5] it was more than 100 µM; in experiment [6] it was 79.8 µM; in [15], more than 100 µM. The TGI in experiment [7] is 71.6 µM; in experiment [8], more than 100 µM; in [9], 96.7 µM; in experiment [10] it was 44.8 µM; in [16], 80.3 µM; in experiment [12], 76.3 µM. Besides, the TGI in experiment [13] is more than 100 µM; in [14], 96.3 µM.
For `CC(C)(NC(=O)OCc1ccccc1)C(=O)NC(Cc1ccccc1)C(=O)NN` (configuration not stated) (Cbz-[Aib]-[ξF]-NHNH2), the TGI in experiment [1], in [2], in experiment [3], in [4], in experiment [5] and in experiment [6] was more than 100 µM in each case. Further, the TGI in experiment [15], in experiment [7], in [8], in experiment [9], in [10] and in experiment [11] was more than 100 µM each time. The TGI in [16], in experiment [13] and in [14] was more than 100 µM in each case.
On to `CC(ON(C(c1ccccc1)C(C)C)C(C)(C)C)c1ccccc1` (configuration not stated), for which the TGI in experiment [1] came out at 30.7 µM; in experiment [3], 84.9 µM; in [4], 29.3 µM; in experiment [5], 28.7 µM; in experiment [6], 43.5 µM; in experiment [15], 49.2 µM. Also, the TGI was 81.3 µM in experiment [7]; 35.9 µM in [8]; 36.6 µM in experiment [9]; 44.4 µM in experiment [10]; 47.5 µM in [11]; 42.9 µM in [16]. The TGI in experiment [12] worked out at 67.6 µM; in experiment [13] it was 31.6 µM; in [14], 30.9 µM.
As for `COc1ccc(N=Nc2c(C)c(C#N)c(=S)n(C3OC(CO)C(O)C(O)C3O)c2-c2ccccc2)cc1` (configuration not stated), the TGI in experiment [1] was more than 100 µM; in experiment [2] it was 44.5 µM; in [3] it was more than 100 µM; in experiment [4], more than 100 µM; in experiment [5], 97.6 µM; in experiment [6] it was more than 100 µM. Further, the TGI is 76.8 µM in [15]; more than 100 µM in experiment [7]; 46.5 µM in experiment [8]; 63.6 µM in [11]; 49.1 µM in [16]; more than 100 µM in experiment [12]. In addition, the TGI was more than 100 µM in [13] and 86.1 µM in experiment [14].
`CNNC1=NS(=O)(=O)c2cc(C#N)c(Cl)cc2S1`: the TGI in [1], in experiment [2], in [3], in experiment [4], in experiment [5] and in experiment [6] was more than 10 µM each time. Further, the TGI in experiment [15], in experiment [7], in experiment [8], in [9], in experiment [10] and in [11] was more than 10 µM in each case. Further, the TGI in [16], in [13] and in experiment [14] was more than 10 µM in each case.
Consider `COc1c(CC=C(C)C)c(O)c(C(CC(C)C)c2c(O)c3c(c(C(C)=O)c2O)OC(C(C)(C)O)C3)c(O)c1C(C)=O` (configuration not stated), for which the TGI in [1] was more than 12.5 µM; in experiment [2], 12.3 µM; in experiment [3] it was more than 12.5 µM; in [4], more than 12.5 µM; in [5] it was 9.49 µM; in [6], more than 12.5 µM. Moreover, the TGI was more than 12.5 µM in [15]; more than 12.5 µM in [7]; 5.9 µM in experiment [8]; more than 12.5 µM in experiment [10]; more than 12.5 µM in [11]; more than 12.5 µM in experiment [16]. The TGI is 6.93 µM in experiment [12] and more than 12.5 µM in experiment [13].
On to `CCc1n[nH]c(=O)n1/N=C/c1ccccc1O`, for which the TGI in [1], in experiment [3], in [4], in [5], in experiment [15] and in experiment [7] was more than 100 µM in each case. Besides, the TGI in experiment [8], in experiment [10], in experiment [11], in experiment [16], in experiment [12] and in [13] was more than 100 µM throughout. The TGI in experiment [14] is more than 100 µM.
`COC(=O)C(NC(=O)C(CC(=O)OC(C)(C)C)NC(=O)OC(C)(C)C)C(O)c1ccccc1` (configuration not stated): the TGI in experiment [1], in [2], in experiment [3], in experiment [4], in [5] and in experiment [6] was more than 100 µM throughout. Besides, the TGI in experiment [15], in experiment [7], in experiment [8], in [9], in experiment [10] and in experiment [11] was more than 100 µM each time. The TGI in [16], in experiment [13] and in experiment [14] was more than 100 µM each time.
In the case of `NC1=CN(CCCO)C2=N/C(=C\c3ccccc3)C(=O)N12`, the TGI in experiment [1], in experiment [2], in experiment [3], in experiment [4], in experiment [5] and in experiment [6] was more than 100 µM throughout. Further, the TGI in experiment [15], in experiment [7], in [8], in experiment [9], in [10] and in experiment [11] was more than 100 µM in each case. Besides, the TGI in experiment [16], in experiment [13] and in [14] was more than 100 µM in each case.
On to `CN(C)CCCc1cccc2[nH]c3c(c12)CN(C)CC3`, for which the TGI in [1] is more than 100 µM; in experiment [3] it was more than 100 µM; in [4], more than 100 µM; in experiment [5], more than 100 µM; in [6] it was more than 100 µM; in experiment [15], 33.9 µM. Besides, the TGI in [7], in [8], in experiment [9], in experiment [10], in experiment [11] and in [16] was more than 100 µM throughout. Besides, the TGI is 74.3 µM in [12], more than 100 µM in experiment [13] and more than 100 µM in experiment [14].
